Assay results from patent US20220112267A1, “PRODUCE AND ISOLATE AND/OR EXTRACT COLLAGEN AND/OR GELATIN FROM ANIMAL CELL LINES AND/OR TISSUE EXPLANTS” (Jellatech, Inc., priority 2020, published 2022).

Experiments:
Format in all cases: cell-based
human cells = test: Collagen production under different concentrations of vitamin C, human cells (FIG. 7C, 7D); settings: seeding density 40,000 or 70,000 cells/well, 96 well plate
Description: (§1) In another example, a collagen detection method using a dual dye assay is described and depicted in FIG. 4. This method measures collagen content of samples using dyes in order to estimate collagen production of adherent cells in cultures without extracting the collagen. Samples may include bovine derma primary fibroblast cell lines or BJ human fibroblast/primary cells, among others not explicitly listed herein. Materials utilized in the method of FIG. 4 include: about 70% ethanol, sterile water, picric acid (or 2,4,6-trinitrophenol), about 0.1% Fast Green FCF solution in saturated picric acid, about 0.4% Fast Green FCF solution and about 0.11% Sirius Red in the saturated picric acid, and about 0.1% NaOH in methanol. The Fast Green FCF dye is used for total protein and the Sirius Red dye is used for collagen content determination. Equipment utilized with the method of FIG. 4 includes a laminar flow cabinet, a spectrophotometer, and a pipette. A process step 406 follows the process step 404 and includes adding a saturated solution of picric acid in distilled water containing a first amount of the Fast Green dye. In examples, the first amount of the Fast Green dye is about 0.01%. […] A process step 420 follows the process step 418 and includes utilizing the spectrophotometer to measure an absorbance at 540 nm and 630 nm. […]

bovine cells [1] = test: Collagen production under different concentrations of vitamin C, bovine cells (FIG. 7A, 7B); settings: seeding density 40,000 or 70,000 cells/well, 96 well plate
Description: as §1

bovine cell lines = test: Factor supplementation, Sircol Collagen Assay, commercially available bovine cell lines; settings: for collagen production: commercially available bovine cell lines, 3-10 days with factor
Description: (§2) In this embodiment, cells were seeded at approximately 3500-4500 cells per well of a 48 well-plate and were allowed to settle for about 48 hours before adding the factor. After about 48 hours, spent media was removed and replaced with growth media supplemented with the factor of interest. Cells continued to grow for about 3-10 days following initial introduction of the factor and a collagen content was quantified with a Sircol™ Collagen Assay. Additionally, experiments were conducted with and without media/factor replenishment about every 48-72 hours.

human KEL-FIB cell line = test: Factor supplementation, Sircol Collagen Assay, human KEL-FIB cell line; settings: for collagen production: 3-10 days with factor
Description: as §2

porcine cell line = test: Factor supplementation, Sircol Collagen Assay, commercially available porcine cell line; settings: 3-10 days with factor
Description: as §2

bovine cells [2] = test: Effects of ginseng, palmitoleic acid and spirulina on total protein content in bovine cells (FIG. 8-10)
Description: (§3) Moreover, FIG. 8 depicts a graph showing effects of ginseng on collagen production in various cell types. FIG. 8 has an x-axis 802 associated with a cell type and a ginseng concentration in μg/mL and a […] measuring a collagen concentration 806 and a protein concentration 808.
(§4) Further, FIG. 9 depicts a graph showing effects of palmitoleic acid on collagen production in various cell types. FIG. 9 has an x-axis 902 associated with a cell type and a palmitoleic acid concentration in μg/mL and a y-axis 904 measuring a collagen concentration 906 and a protein concentration 908.
(§5) FIG. 10 depicts a graph showing effects of a spirulina extract on collagen production in various cell types. FIG. 10 has an x-axis 1002 associated with a cell type and a spirulina extract concentration in μg/mL and a y-axis 1004 measuring a collagen concentration 1006 and a protein concentration 1008.
(§6) However, a total protein content is increased in bovine cells.

various cell types = test: Effects of ginseng, palmitoleic acid and spirulina on collagen production in various cell types (FIG. 8-10)
Description: as §3, §4, §5, §6

O=C1O[C@H]([C@@H](O)CO)C(O)=C1O [vitamin C]
concentration of vitamin C at which the highest collagen concentration resulted (human cells): 10 to 100 mg/mL | concentration of vitamin C at which the highest collagen concentration resulted (bovine cells [1]): 10 to 100 mg/mL | increase of collagen production (bovine cell lines; bovine cell lines): 28-36% | collagen production (bovine cell lines): increased | increase of collagen production (human KEL-FIB cell line): about 50% | collagen production (human KEL-FIB cell line): increased | collagen production (porcine cell line): increased

O=S(=O)([O-])[O-].[Zn+2] [zinc sulfate]
collagen production (bovine cell lines): increased | collagen production (human KEL-FIB cell line): increased | collagen production (porcine cell line): increased

CCCCCC/C=C\CCCCCCCC(=O)O [palmitoleic acid]
total protein content (bovine cells [2]): increased | effect on collagen production (various cell types): do not have a large effect
